Experimental data from paper PMC8624485, “Modeling, Synthesis, and Biological Evaluation of Potential Retinoid-X-Receptor (RXR) Selective Agonists: Analogs of 4-[1-(3,5,5,8,8-Pentamethyl-5,6,7,8-tetrahyro-2-naphthyl)ethynyl]benzoic Acid (Bexarotene) and 6-(Ethyl(4-isobutoxy-3-isopropylphenyl)amino)nicotinic Acid (NEt-4IB)” (International Journal of Molecular Sciences, 2021).
Read-outs that look alike come from different tables or passages of the source.

Legend:
Type in all cases: cell-based
Saccharomyces cerevisiae = Saccharomyces cerevisiae toxicity assay; conditions: 3 h incubation, colony count vs DMSO only control; highest concentration tested 11 µg/µL
Method: These compounds were also assessed for mutagenicity and toxicity in Saccharomyces cerevisiae and the toxicity results are summarized in Table 1. No compound was mutagenic in this assay.
All compounds were tested for toxicity and mutagenicity using a Saccharomyces cerevisiae based assay as described previously. Toxicity was assessed in this assay (Table 1), comparing growth on plates to control treatments. Compounds were solubilized in DMSO at increasing concentrations and cells were incubated with the compounds for 3 h before plating on selective media or YPD to assess toxicity and mutagenicity. Cytotoxicity was assessed as described. Growth of colonies on the full nutrient YPD plate for each treatment was compared to the DMSO only control. The concentration at which 50% cell death (as indicated by colony count compared to DMSO only control) +/−10% cell death is reported as the 50% killing rate. The highest concentration tested was 11 µg/µL.

human RARα = molecular target: T1, human RARα (Homo sapiens, UniProt P10276); experiment: RARE-luciferase reporter assay in HEK293 cells; conditions: HEK293, all-trans-RA set to 100%
T1 construct: expressed in transfected cells; host or cells: HEK293 cells
T1 sequence (P10276 1-462): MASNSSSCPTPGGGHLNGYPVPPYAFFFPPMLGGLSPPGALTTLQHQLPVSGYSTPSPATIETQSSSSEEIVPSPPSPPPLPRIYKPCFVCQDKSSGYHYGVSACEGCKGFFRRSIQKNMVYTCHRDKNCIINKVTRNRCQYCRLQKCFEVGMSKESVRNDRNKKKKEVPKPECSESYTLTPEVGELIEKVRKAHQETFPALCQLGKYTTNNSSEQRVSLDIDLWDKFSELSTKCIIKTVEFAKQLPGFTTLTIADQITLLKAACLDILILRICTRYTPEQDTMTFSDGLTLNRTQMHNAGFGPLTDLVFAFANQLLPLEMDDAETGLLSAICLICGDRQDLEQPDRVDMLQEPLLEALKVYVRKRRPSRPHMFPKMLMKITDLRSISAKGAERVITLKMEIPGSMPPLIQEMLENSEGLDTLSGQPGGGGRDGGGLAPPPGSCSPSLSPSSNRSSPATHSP
Method: Human embryonic kidney cells (HEK293) were plated at 60,000 cells per well in a 24-well plate and maintained as described above. After 24 h, the cells were transfected with 250 ng pTK-DR5(X2)-Luc, 25 ng pCMX-human RARα, and 20 ng renilla utilizing 1.25 µL polyethylenimine (PEI) per well for 24 h. The sequence of the double DR5 RARE is: 5′-[…]-3′ (DR5 responsive elements underlined). The cells were treated with ethanol vehicle (0.1%), all-trans-retinoic acid (RA, the ligand for RAR), or the indicated rexinoid at a final concentration of 10 nM. After 24 h of treatment, the retinoid activity was measured as described above (dual luciferase assay). […] Three independent assays were conducted with triplicate samples for each treatment group. The value for RA was set to 100%. […]

[1] = molecular target: T2, RXR-LXR heterodimer (LXR/LXRE) (Homo sapiens, UniProt P19793); experiment: LXRE-luciferase transactivation assay in HEK293 cells; conditions: for LXRE Activity (% of Bex): 100 nM compound alone, HEK293, bexarotene (1) set to 100%; for LHS Score (vs. Bex): LXRE Heterodimer Specificity: LXRE:RXRE activity ratio, compound 1 set to 1.0
T2 construct: expressed in transfected cells; host or cells: HEK293 cells
T2 sequence (P19793 1-462): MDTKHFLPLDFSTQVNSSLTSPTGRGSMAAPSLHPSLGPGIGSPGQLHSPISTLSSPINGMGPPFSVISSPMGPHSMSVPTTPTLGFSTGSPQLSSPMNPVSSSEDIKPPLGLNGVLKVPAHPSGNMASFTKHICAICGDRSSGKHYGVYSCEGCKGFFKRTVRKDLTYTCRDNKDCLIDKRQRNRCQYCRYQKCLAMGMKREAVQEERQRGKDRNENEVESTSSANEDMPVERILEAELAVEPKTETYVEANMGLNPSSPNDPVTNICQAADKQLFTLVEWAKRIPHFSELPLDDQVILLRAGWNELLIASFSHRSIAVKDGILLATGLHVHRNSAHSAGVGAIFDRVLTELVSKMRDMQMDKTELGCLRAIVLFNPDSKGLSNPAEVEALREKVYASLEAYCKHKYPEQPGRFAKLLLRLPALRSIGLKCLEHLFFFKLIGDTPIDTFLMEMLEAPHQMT
T2 sequence (Q13133 1-447 partner): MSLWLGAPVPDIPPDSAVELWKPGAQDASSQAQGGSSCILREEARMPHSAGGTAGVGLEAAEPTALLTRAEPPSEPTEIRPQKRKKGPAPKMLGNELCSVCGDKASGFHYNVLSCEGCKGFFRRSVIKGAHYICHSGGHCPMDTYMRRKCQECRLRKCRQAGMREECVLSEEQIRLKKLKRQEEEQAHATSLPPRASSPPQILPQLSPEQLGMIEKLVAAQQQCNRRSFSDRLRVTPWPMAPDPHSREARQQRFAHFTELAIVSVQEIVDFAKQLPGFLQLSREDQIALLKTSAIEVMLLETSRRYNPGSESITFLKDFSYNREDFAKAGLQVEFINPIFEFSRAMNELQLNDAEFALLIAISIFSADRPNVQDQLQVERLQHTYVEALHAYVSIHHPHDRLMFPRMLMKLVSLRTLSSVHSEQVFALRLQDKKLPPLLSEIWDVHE
Method: The activation from this natural LXRE in our system was tested in the presence of either 100 nM RXR agonists alone or in combination with 100 nM of both the RXR agonist and LXR agonist T0901317 (TO). […] The LXRE-mediated assays were performed using human embryonic cells (HEK293) seeded at a density of 60,000 cells/well in a 24-well plate and maintained in DMEM (Hyclone) supplemented with 10% fetal bovine serum, 100 µg/mL streptomycin, 100 U/mL penicillin (Invitrogen, Carlsbad, CA, USA) at 37 degrees Celsius, 5% CO2 for 24 h. The cells were co-transfected with 250 ng of an LXRE-luciferase reporter gene, 50 ng of pSG5-human RXRα, and 20 ng of renilla control plasmid. […] After 24 h post treatment, the cells were lysed and the transcriptional activity mediated by the LXRE was measured using the Dual Luciferase Assay System (Promega, Madison, WI) in a Sirius FB12 luminometer (Berthold Detection Systems, Pforzheim, Germany) according to the manufacturer’s protocol. The data are a compilation of between three and six independent assays with each treatment group dosed in triplicate for each independent assay. […] Bars on all graphs indicate standard deviation of the replicate experiments.
Cells were transfected for 24 h utilizing a liposome-mediated transfection protocol and then treated with the ethanol vehicle, or 100 nM of the indicated compound alone or in combination with 100 nM TO901317 (TO). […] (A) Human HEK-293 cells were transfected and treated as described in Figure 8.

RXRα = molecular target: T3, RXRα (Homo sapiens, UniProt P19793); experiment: UAS/Gal4 GFP reporter assay of RXRα activation in UAS-GFP x KMT2A-MLLT3 cells
T3 construct: expressed in transfected cells; host or cells: UAS-GFP x KMT2A-MLLT3 cells (retroviral transduction)
T3 sequence (P19793 227-458 limits assumed): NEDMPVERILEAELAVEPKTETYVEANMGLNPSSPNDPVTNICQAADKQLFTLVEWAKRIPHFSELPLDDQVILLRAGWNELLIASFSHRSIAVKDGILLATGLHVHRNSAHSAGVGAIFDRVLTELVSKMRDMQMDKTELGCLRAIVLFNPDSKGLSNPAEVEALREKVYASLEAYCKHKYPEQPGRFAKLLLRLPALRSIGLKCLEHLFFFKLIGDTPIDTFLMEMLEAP
Method: Cells were treated, and after 48 h, GFP measured by a ZE5 Flow Cytometer (Biorad).

[2] = RXRα activation, value (SD), Table 1 does not say whether GFP or Luc assay, read-out: EC50 (nM) +/−(SD)

C=C(c1ccc(C(=O)O)cc1)c1cc2c(cc1C)C(C)(C)CCC2(C)C [Compound 1, reference compound]
Cyto-Toxicity (50% Cell Death) (Saccharomyces cerevisiae): 0.5 µg/µL

CCN(c1ccc(OCC(C)C)c(C(C)C)c1)c1ccc(C(=O)O)cn1 [Compound 25, 6-(ethyl(4-isobutoxy-3-isopropylphenyl)amino)nicotinic acid]
RARE Activity (%RA at 10 nM) (human RARα): 2.9 %RA
LXRE Activity (% of Bex) [1]: 72.4 % of Bex
Cyto-Toxicity (50% Cell Death) (Saccharomyces cerevisiae): none
EC50 (RXRα; [2]): 274 nM

C=C(c1ccc(C(=O)O)cc1)c1cc2c(cc1C)C(C)(C)CC2(C)C [Compound 26, reference compound]
RARE Activity (%RA at 10 nM) (human RARα): 3.0 %RA
LXRE activity in combination with LXR ligand T0901317 (TO) ([1]; 100 nM compound + 100 nM T0901317, HEK293, compared with TO+1): higher activity than TO+1
LXRE Activity (% of Bex) [1]: 94.5 % of Bex
LHS Score (vs. Bex) [1]: 0.66
Cyto-Toxicity (50% Cell Death) (Saccharomyces cerevisiae): none
EC50 (RXRα; [2]): 70.1 nM

C=C(c1ccc(C(=O)O)cc1)c1ccc2c(c1)C(C)(C)CCC2(C)C [Compound 27, 4-(1-(5,5,8,8-tetramethyl-5,6,7,8-tetrahydronaphthalen-2-yl)vinyl)benzoic acid, reference compound]
RARE Activity (%RA at 10 nM) (human RARα): 1.5 %RA
LXRE Activity (% of Bex) [1]: 82.4 % of Bex
LHS Score (vs. Bex) [1]: 1.0
Cyto-Toxicity (50% Cell Death) (Saccharomyces cerevisiae): 0.5 µg/µL
EC50 (RXRα): 171 nM

CCN(c1ccc(OCC(C)C)c(C(C)C)c1)c1ncc(C(=O)O)cn1 [Compound 28, 2-(ethyl(4-isobutoxy-3-isopropylphenyl)amino)pyrimidine-5-carboxylic acid]
RARE Activity (%RA at 10 nM) (human RARα): 1.6 %RA
LXRE Activity (% of Bex) [1]: 77.7 % of Bex
Cyto-Toxicity (50% Cell Death) (Saccharomyces cerevisiae): 1 µg/µL
EC50 (RXRα; [2]): 297 nM

CCN(c1ccc(C(=O)O)cc1)c1ccc(OCC(C)C)c(C(C)C)c1 [Compound 30, 4-(ethyl(4-isobutoxy-3-isopropylphenyl)amino)benzoic acid]
RARE Activity (%RA at 10 nM) (human RARα): 1.1 %RA
LXRE Activity (% of Bex) [1]: 60.2 % of Bex
Cyto-Toxicity (50% Cell Death) (Saccharomyces cerevisiae): 0.08 µg/µL
EC50 (RXRα; [2]): 397 nM

C=C(c1ncc(C(=O)O)cn1)c1cc2c(cc1C)C(C)(C)CC2(C)C [Compound 32, 2-(1-(1,1,3,3,6-pentamethyl-2,3-dihydro-1H-inden-5-yl)vinyl)pyrimidine-5-carboxylic Acid]
RARE Activity (%RA at 10 nM) (human RARα): 12.9 %RA
LXRE Activity (% of Bex) [1]: 46.0 % of Bex
LHS Score (vs. Bex) [1]: 0.38
Cyto-Toxicity (50% Cell Death) (Saccharomyces cerevisiae): none
EC50 (RXRα; [2]): 34.4 nM

Cc1cc2c(cc1C1(c3ncc(C(=O)O)cn3)CC1)C(C)(C)CC2(C)C [Compound 33, 2-(1-(1,1,3,3,6-pentamethyl-2,3-dihydro-1H-inden-5-yl)cyclopropyl)pyrimidine-5-carboxylic Acid]
RARE Activity (%RA at 10 nM) (human RARα): 5.9 %RA
LXRE Activity (% of Bex) [1]: 50.9 % of Bex
LHS Score (vs. Bex) [1]: 0.38
Cyto-Toxicity (50% Cell Death) (Saccharomyces cerevisiae): none
EC50 (RXRα; [2]): 17 nM

C=C(c1ccc2c(c1)C(C)(C)CCC2(C)C)c1ncc(C(=O)O)cn1 [Compound 34, 2-(1-(5,5,8,8-tetramethyl-5,6,7,8-tetrahydronaphthalen-2-yl)vinyl)pyrimidine-5-carboxylic acid]
RARE Activity (%RA at 10 nM) (human RARα): 10.3 %RA
LXRE Activity (% of Bex) [1]: 77.6 % of Bex
LHS Score (vs. Bex) [1]: 0.70
Cyto-Toxicity (50% Cell Death) (Saccharomyces cerevisiae): none
EC50 (RXRα; [2]): 56.2 nM

CC1(C)CCC(C)(C)c2cc(C3(c4ncc(C(=O)O)cn4)CC3)ccc21 [Compound 35, 2-(1-(5,5,8,8-tetramethyl-5,6,7,8-tetrahydronaphthalen-2-yl)cyclopropyl)pyrimidine-5-carboxylic acid]
RARE Activity (%RA at 10 nM) (human RARα): 5.1 %RA
LXRE Activity (% of Bex) [1]: 60.6 % of Bex
Cyto-Toxicity (50% Cell Death) (Saccharomyces cerevisiae): none
EC50 (RXRα; [2]): 1.3 nM

C=C(c1ccc(C(=O)O)c(F)c1)c1ccc2c(c1)C(C)(C)CCC2(C)C [Compound 36, 2-fluoro-4-(1-(5,5,8,8-tetramethyl-5,6,7,8-tetrahydronaphthalen-2-yl)vinyl)benzoic Acid]
RARE Activity (%RA at 10 nM) (human RARα): 1.4 %RA
LXRE Activity (% of Bex) [1]: 85.2 % of Bex
Cyto-Toxicity (50% Cell Death) (Saccharomyces cerevisiae): 0.08 µg/µL
EC50 (RXRα; [2]): 375 nM

C=C(c1ccc(C(=O)O)c(O)c1)c1cc2c(cc1C)C(C)(C)CCC2(C)C [Compound 37a, 2-Hydroxy-4-(1-(3,5,5,8,8-pentamethyl-5,6,7,8-tetrahydronaphthalen-2-yl)vinyl)benzoic acid]
RARE Activity (%RA at 10 nM) (human RARα): 2.9 %RA
LXRE Activity (% of Bex) [1]: 91.1 % of Bex
LHS Score (vs. Bex) [1]: 0.45
Cyto-Toxicity (50% Cell Death) (Saccharomyces cerevisiae): 1 µg/µL
EC50 (RXRα; [2]): 24.2 nM

C=C(c1ccc(C(=O)O)c(O)c1)c1ccc2c(c1)C(C)(C)CCC2(C)C [Compound 37b, 2-Hydroxy-4-(1-(5,5,8,8-tetramethyl-5,6,7,8-tetrahydronaphthalen-2-yl)vinyl)benzoic Acid]
RARE Activity (%RA at 10 nM) (human RARα): 5.2 %RA
LXRE Activity (% of Bex) [1]: 69.1 % of Bex
LHS Score (vs. Bex) [1]: 0.91
Cyto-Toxicity (50% Cell Death) (Saccharomyces cerevisiae): 0.5 µg/µL
EC50 (RXRα; [2]): 413 nM
